The pIC50 is −log10 of the IC50, conventionally taken in molar units. A lower pIC50 goes with a high IC50. What is called pKa is the pH at which an ionisable group is half protonated. For orientation: chromatographic logD means lipophilicity estimated from chromatographic retention. The IC50 is the point on the concentration scale where inhibition reaches its midpoint. One may read the CLint scaled as the rate of metabolic loss divided by the concentration. The low end stands for slow turnover, the high end for rapid turnover.

Data set [1] can be described thus: Inhibition of H+/K+ ATPase at pH 7.4.
Data set [2] can be described thus: Dissociation constant, pKa of the compound. The format is physicochemical. The note with it: read-out: pKa.
Data set [3] in a line: Chromatographic hydrophobicity index at pH 7.4 by fast gradient HPLC. In kind it is physicochemical. To be noted: buffer.
The target in another data set is Cytochrome P450 2D6 (Homo sapiens, UniProt P10635). The experiment in a line: Inhibition of CYP2D6. The format is ADME.
Another data set addresses T1, Cytochrome P450 1A2 (Homo sapiens, UniProt P05177).
T1 sequence (P05177 whole entry): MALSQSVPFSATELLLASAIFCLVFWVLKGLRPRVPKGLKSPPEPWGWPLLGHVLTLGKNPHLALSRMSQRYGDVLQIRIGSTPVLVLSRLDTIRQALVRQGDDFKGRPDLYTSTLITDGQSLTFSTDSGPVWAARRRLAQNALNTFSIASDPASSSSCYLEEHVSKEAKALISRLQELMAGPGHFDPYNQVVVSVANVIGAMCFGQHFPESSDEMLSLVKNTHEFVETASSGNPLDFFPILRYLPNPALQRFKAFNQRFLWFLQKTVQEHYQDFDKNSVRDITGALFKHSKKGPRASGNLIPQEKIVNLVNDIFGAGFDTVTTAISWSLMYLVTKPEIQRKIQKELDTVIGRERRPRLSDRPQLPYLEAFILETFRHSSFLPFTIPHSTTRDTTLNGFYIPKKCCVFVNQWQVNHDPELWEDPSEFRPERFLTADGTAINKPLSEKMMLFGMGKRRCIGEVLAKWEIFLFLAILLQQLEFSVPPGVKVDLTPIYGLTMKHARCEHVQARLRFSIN
The experiment in a line: Inhibition of CYP1A2. The format is ADME.

A short description of data set [4]: Intrinsic clearance in rat liver microsomes. The format is ADME, Microsome.
The target of data set [5] is T2, Cytochrome P450 3A4 (Homo sapiens, UniProt P08684). Description: Inhibition of CYP3A4 using 7-benzyloxyquinoline substrate. The format is ADME.
Data set [6] addresses T2, Cytochrome P450 3A4. Description: Inhibition of CYP3A4 using diethoxyfluorescein substrate. The format is ADME.
The next data set concerns the target Cytochrome P450 2C9 (Homo sapiens, UniProt P11712).
Data set [7] is described as follows: Intrinsic clearance in human liver microsomes. The format is ADME, Microsome. (Microsomes from liver hold many membrane-bound enzymes, among them those of drug oxidation.)
The next data set deals with Cytochrome P450 2C19 (Homo sapiens, UniProt P33261). The experiment in a line: Inhibition of CYP2C19. In kind it is ADME.
Data set [8] in a line: Inhibition of H+/K+ ATPase in parietal cells assessed as inhibition of histamine-stimulated [14C]aminopyrine accumulation.

Sequence of Cytochrome P450 2C9 (P11712 whole entry): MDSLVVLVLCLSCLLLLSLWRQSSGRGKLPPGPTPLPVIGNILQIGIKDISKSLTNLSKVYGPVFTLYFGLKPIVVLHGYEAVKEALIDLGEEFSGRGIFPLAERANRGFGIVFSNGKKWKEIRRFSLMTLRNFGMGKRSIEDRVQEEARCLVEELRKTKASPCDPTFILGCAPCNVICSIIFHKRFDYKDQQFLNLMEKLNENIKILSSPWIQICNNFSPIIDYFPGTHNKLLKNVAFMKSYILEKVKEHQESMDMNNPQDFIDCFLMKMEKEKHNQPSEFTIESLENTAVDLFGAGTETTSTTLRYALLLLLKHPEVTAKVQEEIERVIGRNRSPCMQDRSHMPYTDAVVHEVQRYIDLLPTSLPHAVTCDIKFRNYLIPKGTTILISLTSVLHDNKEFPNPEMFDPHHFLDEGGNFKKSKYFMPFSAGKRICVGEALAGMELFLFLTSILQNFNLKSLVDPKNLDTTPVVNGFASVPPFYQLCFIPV
T2 sequence (P08684 whole entry): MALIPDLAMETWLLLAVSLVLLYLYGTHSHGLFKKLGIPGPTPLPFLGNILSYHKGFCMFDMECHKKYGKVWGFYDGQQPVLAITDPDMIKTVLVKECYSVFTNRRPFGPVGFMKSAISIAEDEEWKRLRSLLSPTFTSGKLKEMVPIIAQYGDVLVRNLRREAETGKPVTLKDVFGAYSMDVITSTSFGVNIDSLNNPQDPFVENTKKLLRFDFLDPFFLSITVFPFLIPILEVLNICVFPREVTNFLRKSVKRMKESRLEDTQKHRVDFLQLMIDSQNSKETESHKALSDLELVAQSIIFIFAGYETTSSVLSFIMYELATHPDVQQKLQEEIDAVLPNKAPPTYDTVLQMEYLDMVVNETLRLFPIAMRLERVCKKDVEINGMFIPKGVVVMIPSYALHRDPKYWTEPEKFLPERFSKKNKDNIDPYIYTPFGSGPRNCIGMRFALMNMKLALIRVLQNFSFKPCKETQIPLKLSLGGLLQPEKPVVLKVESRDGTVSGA
Sequence of Cytochrome P450 2C19 (P33261 whole entry): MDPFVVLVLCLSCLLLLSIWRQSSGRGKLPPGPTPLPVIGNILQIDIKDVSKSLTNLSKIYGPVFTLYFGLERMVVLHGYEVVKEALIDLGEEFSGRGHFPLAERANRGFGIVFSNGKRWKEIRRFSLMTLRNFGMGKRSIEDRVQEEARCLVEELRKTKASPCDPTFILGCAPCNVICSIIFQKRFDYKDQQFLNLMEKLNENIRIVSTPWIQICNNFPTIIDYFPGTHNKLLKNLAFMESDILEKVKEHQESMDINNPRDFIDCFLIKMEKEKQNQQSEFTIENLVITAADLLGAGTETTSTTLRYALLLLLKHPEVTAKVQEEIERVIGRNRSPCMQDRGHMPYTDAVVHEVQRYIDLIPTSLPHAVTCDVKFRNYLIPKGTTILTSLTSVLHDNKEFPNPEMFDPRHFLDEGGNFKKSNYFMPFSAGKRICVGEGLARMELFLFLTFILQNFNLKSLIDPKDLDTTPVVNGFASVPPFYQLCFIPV
Sequence of Cytochrome P450 2D6 (P10635 whole entry): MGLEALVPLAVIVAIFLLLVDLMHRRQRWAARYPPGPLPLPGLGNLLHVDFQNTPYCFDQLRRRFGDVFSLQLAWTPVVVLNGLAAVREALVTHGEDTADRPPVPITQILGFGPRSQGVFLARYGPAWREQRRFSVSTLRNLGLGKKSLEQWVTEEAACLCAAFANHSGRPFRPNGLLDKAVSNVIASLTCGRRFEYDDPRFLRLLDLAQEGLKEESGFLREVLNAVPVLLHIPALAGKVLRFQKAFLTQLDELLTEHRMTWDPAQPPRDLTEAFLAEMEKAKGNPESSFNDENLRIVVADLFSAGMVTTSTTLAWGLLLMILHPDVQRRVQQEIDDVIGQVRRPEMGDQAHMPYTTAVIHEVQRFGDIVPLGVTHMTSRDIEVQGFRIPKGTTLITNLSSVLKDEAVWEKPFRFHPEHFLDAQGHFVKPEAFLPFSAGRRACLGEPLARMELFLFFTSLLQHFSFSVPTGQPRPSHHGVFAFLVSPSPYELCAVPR

With `Cc1cc2ncnc(NCc3c(C)cccc3C)c2s1`, the pIC50 in data set [1] was less than 4.
Turning to `Cc1cccc(C)c1CNc1nccc2cc[nH]c12`, the pKa in [2] came out at 8.63. The same molecule registered a negative-log IC50 (pIC50) in [1] of 6.8.
For `Cc1cccc(C)c1CNc1nc(-n2ccccc2=O)cc2c(C)c(C)[nH]c12`, the pKa in data set [2] worked out at 4.71. Also, the chromatographic logD in [3] came to 3.18. The IC50 against Cytochrome P450 2D6 was more than 33 µM; at Cytochrome P450 1A2, 29 µM; at Cytochrome P450 3A4 [5] it was 90 µM; on Cytochrome P450 3A4 [6] it was 3 µM; against Cytochrome P450 2C9, 3.3 µM; at Cytochrome P450 2C19, 20 µM. The intrinsic metabolic clearance (CLint scaled) was determined as 2.9 mL/min/kg in [4] and 2.7 mL/min/kg in [7]. Further, the negative logarithm of the IC50 (pIC50) in data set [1] was found to be 7.4.
With `Cc1cccc(C)c1CNc1nc(-n2ccccc2=O)cc2c(C)c(C)n(CCO)c12`, in data set [2], the pKa is 4.5. This molecule showed a chromatographic logD in data set [3] of 3.12. Moreover, the concentration for half-maximal inhibition (IC50) was 0.251 µM in data set [8]; 45.5 µM on Cytochrome P450 2D6; more than 100 µM at Cytochrome P450 1A2; 5.6 µM against Cytochrome P450 3A4 [6]; 11.4 µM at Cytochrome P450 2C9; 40 µM at Cytochrome P450 2C19. In addition, the values for the CLint scaled in data set [4] and in [7] were 21.9 mL/min/kg and 12.1 mL/min/kg, respectively. In data set [1], this molecule returned a pIC50 of 6.8.
`Cc1cccc(C)c1CNc1ccnn2c(C)c(C)nc12` returned a chromatographic logD in data set [3] of 3.53. In data set [1], this molecule returned a negative-log IC50 (pIC50) of 6.1.
Turning to `Cc1cccc(C)c1CNc1ccnc2c1nc(C)n2C`, in data set [2], the pKa was 5.81. In data set [3], this molecule returned a chromatographic logD of 2.27. In [1], this molecule registered a pIC50 of 4.5.
Take `C=CCn1c(C)c(C)c2cc(-n3ccccc3=O)nc(NCc3c(C)cccc3C)c21`: the pKa in data set [2] is 4. In [3], the chromatographic logD turned out to be 4.06. Moreover, the 50% inhibitory concentration (IC50) against Cytochrome P450 2D6 worked out at 26 µM; against Cytochrome P450 1A2, 62 µM; on Cytochrome P450 3A4 [6], 2.4 µM; against Cytochrome P450 2C9, 0.5 µM; against Cytochrome P450 2C19 it was 6 µM. In addition, the CLint scaled in data set [4] is 20 mL/min/kg; in data set [7], 13 mL/min/kg. The pIC50 in data set [1] was 7.5.
With `Cc1cccc(C)c1CNc1cccn2c(C)ncc12`, the pKa in data set [2] is 6.03. This molecule also displayed a pIC50 in [1] of 4.1.
In turn, `Cc1cccc(C)c1CNc1ncnc2c(C)csc12` had a negative-log IC50 (pIC50) in data set [1] of less than 4.
Turning to `Cc1cccc(C)c1COc1cccn2c(C)c(C)nc12`, in data set [2], the pKa stood at 7.41. In data set [3], this molecule registered a chromatographic logD of 3.38. For the same molecule, the concentration for half-maximal inhibition (IC50) at Cytochrome P450 2D6 was determined as 2.3 µM; on Cytochrome P450 1A2, 0.7 µM; on Cytochrome P450 3A4 [5] it was 18 µM; against Cytochrome P450 3A4 [6] it was 5.5 µM; against Cytochrome P450 2C9 it was 16 µM; at Cytochrome P450 2C19, 6.2 µM. The molecule also showed a pIC50 in data set [1] of 7.6.
As for `CCn1c(C)c(C)c2cc(-n3ccccc3=O)nc(NCc3c(C)cccc3C)c21`, in data set [2], the pKa was 4. The molecule further registered a chromatographic logD in data set [3] of 3.9. Further, the half-maximal inhibitory concentration (IC50) is 0.2 µM in data set [8]; 18 µM on Cytochrome P450 2D6; 65 µM against Cytochrome P450 1A2; 2.9 µM at Cytochrome P450 3A4 [6]; 0.7 µM on Cytochrome P450 2C9; 6.5 µM against Cytochrome P450 2C19. The figures for the intrinsic metabolic clearance (CLint scaled) in data set [4] and in [7] were 41 mL/min/kg and 22 mL/min/kg, respectively. In addition, the pIC50 in data set [1] turned out to be 7.4.
On to `Cc1nc2c(OCc3ccccc3)cccn2c1CC#N`, for which the pKa in data set [2] turned out to be 7.28. Moreover, in [3], the chromatographic logD came to 4.2. The concentration for half-maximal inhibition (IC50) is 0.0166 µM in data set [8]; 82 µM on Cytochrome P450 2D6; 2 µM at Cytochrome P450 1A2; 12 µM against Cytochrome P450 3A4 [5]; 9 µM on Cytochrome P450 3A4 [6]; more than 100 µM against Cytochrome P450 2C19. Further, the CLint scaled in data set [4] was 8.5 mL/min/kg; in data set [7] it was 8 mL/min/kg. The molecule also came in with a pIC50 in data set [1] of 7.4.
Consider `Cc1cccc(C)c1CNc1nccn2c(C)c(C)nc12`, for which the chromatographic logD in data set [3] worked out at 3.4. Besides, the IC50 in data set [8] is 0.282 µM. In addition, the pIC50 in [1] stood at 7.1.

The values above are taken from ChEMBL document CHEMBL1154377, “Evaluation of basic, heterocyclic ring systems as templates for use as potassium competitive acid blockers (pCABs)” (Bioorg Med Chem Lett, 2009).
